The target in one test is PDGFRα (Homo sapiens, UniProt P16234). As to the kind of experiment: FRET-based Z'-Lyte kinase assay, parallel comparison. The class given is biochemical.
Another test has as its system HL60^Flt3-WT. As to the kind of experiment: cells. On the set-up: species or system human leukemia lines named per line.
Another test concerns MOLM-13^Flt3-ITD. The test can be described thus: cells. Details: species or system human leukemia lines named per line.
The next test has as its system THP1^Flt3-WT. The test can be described thus: cells. Details: species or system human leukemia lines named per line.
In another test the test system is MV411^Flt3-ITD. As to the kind of experiment: cells. Details: species or system human leukemia lines named per line.
The test system of a further test is BaF3-tel-FLT3-R834Q. The test can be described thus: cells. Details: species or system Ba/F3 stable lines.
The subject of another test is BaF3-FLT3-ITD-N676D. As to the kind of experiment: cells. On the set-up: species or system Ba/F3 stable lines.
The subject of the next test is BaF3-tel-FLT3. The test can be described thus: cells. On the set-up: species or system Ba/F3 stable lines. The settings on record: read-out: Quizartinib / (AC220); 72 h proliferation; inhibitor.
The test system of the next test is BaF3-tel-FLT3-K663Q. As to the kind of experiment: cells. On the set-up: species or system Ba/F3 stable lines.
Another test has as its system BaF3-FLT3-ITD-D835I. As to the kind of experiment: cells. On the set-up: species or system Ba/F3 stable lines. The settings on record: read-out: Quizartinib / (AC220); 72 h proliferation; inhibitor.
In another test the test system is BaF3-FLT3-MOLM-ITD. As to the kind of experiment: cells. On the set-up: species or system Ba/F3 stable lines.
For the next test, the system named is BaF3-FLT3-D835H. The test can be described thus: cells. On the set-up: species or system Ba/F3 stable lines.
In the next test the test system is BaF3-FLT3-ITD-D835Y. As to the kind of experiment: cells. Details: species or system Ba/F3 stable lines.
Another test relates to BaF3-FLT3-ITD-F691I. The test can be described thus: cells. Details: species or system Ba/F3 stable lines. The settings on record: read-out: Quizartinib / (AC220); 72 h proliferation; inhibitor.
The test system of the next test is BaF3-FLT3-ITD-Y842H. As to the kind of experiment: cells. On the set-up: species or system Ba/F3 stable lines.
The test system of another test is BaF3-Tel-FLT3-ITD. The test can be described thus: cells. Details: species or system Ba/F3 stable lines. Particulars: read-out: Quizartinib / (AC220); 72 h proliferation; inhibitor.
The next test relates to BaF3-FLT3-ITD-D835G. The test can be described thus: cells. Details: species or system Ba/F3 stable lines. The settings on record: read-out: Quizartinib / (AC220); 72 h proliferation; inhibitor.
A further test concerns BaF3-FLT3-ITD-Y842R. The test can be described thus: cells. Particulars: read-out: Quizartinib / (AC220); 72 h proliferation; inhibitor. On the set-up: species or system Ba/F3 stable lines.
The subject of a further test is BaF3-FLT3-ITD-D835N. As to the kind of experiment: cells. Details: species or system Ba/F3 stable lines. The settings on record: read-out: Quizartinib / (AC220); 72 h proliferation; inhibitor.
For a further test, the system named is BaF3-FLT3-ITD-D835V. As to the kind of experiment: cells. Details: species or system Ba/F3 stable lines. Particulars: read-out: Quizartinib / (AC220); 72 h proliferation; inhibitor.
The next test relates to BaF3-FLT3-D835V. As to the kind of experiment: cells. On the set-up: species or system Ba/F3 stable lines.
A further test has as its system BaF3-tel-FLT3-D835Y. As to the kind of experiment: cells. On the set-up: species or system Ba/F3 stable lines.
The test system of a further test is BaF3-FLT3-ITD-G697R. The test can be described thus: cells. On the set-up: species or system Ba/F3 stable lines. The settings on record: read-out: Quizartinib / (AC220); 72 h proliferation; inhibitor.
Another test relates to EOL-1^PDGFRα. As to the kind of experiment: cells. On the set-up: species or system human leukemia lines named per line.
The subject of the next test is MOLT4^Flt3-WT. The test can be described thus: cells. On the set-up: species or system human leukemia lines named per line.
The subject of a further test is U937^Flt3-WT. As to the kind of experiment: cells. Details: species or system human leukemia lines named per line.
In another test the test system is NB4^Flt3-WT. As to the kind of experiment: cells. The settings on record: read-out: Quizaritinib (AC220); 72 h proliferation, mean ± SD; inhibitor. Details: species or system human leukemia lines named per line.
In the next test the test system is MEG01^Flt-WT. As to the kind of experiment: cells. The settings on record: read-out: Quizaritinib (AC220); 72 h proliferation, mean ± SD; inhibitor. On the set-up: species or system human leukemia lines named per line.
Another test deals with KG1^FGFR1OP2-FGFR1. As to the kind of experiment: cells. On the set-up: species or system human leukemia lines named per line.
Where [1] appears, read: 72 h, read-out: Gilteritinib (ASP2215).
The mark [2] stands for this setting: Mus musculus, BaF3, 72 h, read-out: Midostaurin / (PKC412).
Where [3] appears, read: read-out: Quizartinib / (AC220), 72 h proliferation, inhibitor.
The mark [4] stands for this setting: read-out: Quizaritinib (AC220), 72 h proliferation, mean ± SD, inhibitor.
The mark [5] stands for this setting: Mus musculus, BaF3, 72 h, read-out: GZD824.
The mark [6] stands for this setting: 72 h, read-out: GZD824 (HQP1351).

Like-named read-outs stand apart in the source and are kept apart here.

PDGFRα, sequence (P16234 24-1089): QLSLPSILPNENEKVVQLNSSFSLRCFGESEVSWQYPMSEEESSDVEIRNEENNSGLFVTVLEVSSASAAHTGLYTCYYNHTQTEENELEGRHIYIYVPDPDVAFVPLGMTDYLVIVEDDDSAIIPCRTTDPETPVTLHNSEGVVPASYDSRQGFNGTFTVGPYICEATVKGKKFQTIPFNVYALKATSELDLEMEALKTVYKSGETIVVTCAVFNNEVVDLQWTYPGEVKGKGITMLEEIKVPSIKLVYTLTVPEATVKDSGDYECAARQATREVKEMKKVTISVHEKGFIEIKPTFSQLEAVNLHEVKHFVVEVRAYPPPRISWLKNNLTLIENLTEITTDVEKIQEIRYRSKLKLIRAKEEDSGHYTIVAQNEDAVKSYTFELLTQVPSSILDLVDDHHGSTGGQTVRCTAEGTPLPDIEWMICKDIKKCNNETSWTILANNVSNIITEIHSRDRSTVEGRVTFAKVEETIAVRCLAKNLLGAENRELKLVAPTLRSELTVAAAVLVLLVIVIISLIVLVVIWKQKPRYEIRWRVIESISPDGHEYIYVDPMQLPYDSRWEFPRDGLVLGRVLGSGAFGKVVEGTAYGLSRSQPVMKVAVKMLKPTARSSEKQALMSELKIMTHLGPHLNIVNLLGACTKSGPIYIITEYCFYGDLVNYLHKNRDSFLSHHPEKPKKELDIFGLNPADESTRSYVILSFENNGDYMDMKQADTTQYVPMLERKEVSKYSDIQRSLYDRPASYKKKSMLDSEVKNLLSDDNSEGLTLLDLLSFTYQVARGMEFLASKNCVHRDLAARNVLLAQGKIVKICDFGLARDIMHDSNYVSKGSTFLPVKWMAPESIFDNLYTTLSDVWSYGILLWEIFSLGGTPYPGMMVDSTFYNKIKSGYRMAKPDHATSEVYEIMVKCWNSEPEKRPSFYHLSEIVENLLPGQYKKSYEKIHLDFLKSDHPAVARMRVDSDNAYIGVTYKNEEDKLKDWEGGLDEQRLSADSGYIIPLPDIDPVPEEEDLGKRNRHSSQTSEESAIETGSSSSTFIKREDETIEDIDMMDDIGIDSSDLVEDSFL

In the case of `CCc1nc(C(N)=O)c(Nc2ccc(N3CCC(N4CCN(C)CC4)CC3)c(OC)c2)nc1NC1CCOCC1` [gilteritinib], the IC50 on PDGFRα was 148 ± 7.78 nM; in the test on HL60^Flt3-WT (setting [1]) it was 689 ± 398 nM; with MOLM-13^Flt3-ITD (setting [1]) it was 9.35 ± 2.23 nM; with THP1^Flt3-WT (setting [1]) it was more than 1000 nM; with MV411^Flt3-ITD (setting [1]), 3.34 ± 0.91 nM.

With `CO[C@@H]1[C@H](N(C)C(=O)c2ccccc2)C[C@H]2O[C@]1(C)n1c3ccccc3c3c4c(c5c6ccccc6n2c5c31)C(=O)NC4` [Midostaurin], the results for the IC50 with BaF3-tel-FLT3-R834Q (setting [2]) and in the test on BaF3-FLT3-ITD-N676D (setting [2]) were 63.1 nM and 62.4 nM, respectively.

For the compound `CC(C)(C)c1cc(NC(=O)Nc2ccc(-c3cn4c(n3)sc3cc(OCCN5CCOCC5)ccc34)cc2)no1` [quizartinib], the IC50 is 3.1 nM in the test with BaF3-tel-FLT3; more than 1000 nM with BaF3-tel-FLT3-K663Q (setting [3]); 183 nM in the test on BaF3-FLT3-ITD-D835I; 0.8 nM in the test on BaF3-FLT3-MOLM-ITD (setting [3]); 4 nM in the test on BaF3-FLT3-D835H (setting [3]); more than 1000 nM with BaF3-tel-FLT3-R834Q (setting [3]). The IC50 with BaF3-FLT3-ITD-D835Y (setting [3]) is 35.5 nM; in the test with BaF3-FLT3-ITD-F691I, 95 nM; with BaF3-FLT3-ITD-Y842H (setting [3]) it was 5.3 nM; in the test on BaF3-Tel-FLT3-ITD, 2 nM; in the test with BaF3-FLT3-ITD-D835G it was 4.3 nM; with BaF3-FLT3-ITD-Y842R, 7.2 nM. The IC50 is 8.3 nM with BaF3-FLT3-ITD-N676D (setting [3]); 1.6 nM in the test on BaF3-FLT3-ITD-D835N; 126 nM in the test with BaF3-FLT3-ITD-D835V; 40.2 nM in the test with BaF3-FLT3-D835V (setting [3]); 2.4 nM in the test with BaF3-tel-FLT3-D835Y (setting [3]); 22.8 nM with BaF3-FLT3-ITD-G697R. In addition, the IC50 with HL60^Flt3-WT (setting [4]) was 1170 ± 72.1 nM; with EOL-1^PDGFRα (setting [4]) it was 1510 ± 451 nM; with MOLT4^Flt3-WT (setting [4]), 1950 ± 1750 nM; in the test with MOLM-13^Flt3-ITD (setting [4]) it was 5.67 ± 9.29 nM; in the test on U937^Flt3-WT (setting [4]), 1430 ± 246 nM; in the test with THP1^Flt3-WT (setting [4]), more than 1000 nM. The IC50 was 1990 ± 890 nM in the test with NB4^Flt3-WT, 3310 ± 1560 nM in the test on MEG01^Flt-WT, 1.07 ± 0.32 nM in the test with MV411^Flt3-ITD (setting [4]) and 1020 ± 572 nM with KG1^FGFR1OP2-FGFR1 (setting [4]).

Consider `Cc1ccc(C(=O)Nc2ccc(CN3CCN(C)CC3)c(C(F)(F)F)c2)cc1C#Cc1cnc2[nH]ncc2c1` [GZD824], for which the IC50 in the test with BaF3-tel-FLT3-K663Q (setting [5]) came to 853 nM; in the test on BaF3-FLT3-MOLM-ITD (setting [5]), 0.8 nM; in the test on BaF3-FLT3-D835H (setting [5]) it was 17.6 nM; with BaF3-tel-FLT3-R834Q (setting [5]), 76.2 nM; in the test on BaF3-FLT3-ITD-D835Y (setting [5]) it was 35.7 nM; in the test on BaF3-FLT3-ITD-Y842H (setting [5]), 3.2 nM. In addition, the IC50 in the test on BaF3-FLT3-ITD-N676D (setting [5]) amounted to 7.2 nM; with BaF3-FLT3-D835V (setting [5]) it was 34.7 nM; in the test on BaF3-tel-FLT3-D835Y (setting [5]), 5.7 nM; in the test on HL60^Flt3-WT (setting [6]) it was 922 ± 210 nM; with EOL-1^PDGFRα (setting [6]) it was 7.56 ± 2.73 nM; in the test on MOLT4^Flt3-WT (setting [6]), 246 ± 139 nM. For the same compound, the IC50 in the test with U937^Flt3-WT (setting [6]) was 1170 ± 105 nM; in the test on KG1^FGFR1OP2-FGFR1 (setting [6]), 3.66 ± 1.93 nM.

Values taken from article PMC7125355 (Translational Oncology, 2020).
